Patent US10336735B2, “Small molecule inhibitors of fibrosis” (THE CALIFORNIA INSTITUTE FOR BIOMEDICAL RESEARCH, priority 2014, dated 2019)

Tested on: primary human lung fibroblasts and primary rodent HSCs
Experiment: High content imaging assay (α-SMA staining, cell morphology) of fibroblast to myofibroblast transdifferentiation, confirmed by Western blot and RT-PCR
Settings: Homo sapiens, Fibroblast; imaging and western based activity
Description: High content imaging assays have been established, using primary human lung fibroblasts and primary rodent HSCs, that enable the identification of small molecules that either inhibit myofibroblast formation/activation or induce the reversion of activated myofibroblasts to a quiescent fibroblast state. Conditions, involving serum starvation and subsequent TGF-β treatment, have been identified that facilitate robust in vitro transdifferentiation in a miniaturized (384 well plate) format that is amenable to high throughput small molecule screening. The inhibition assay is based on α-SMA immunofluorescent staining and cell morphology changes associated with fibroblast to myofibroblast transdifferentiation, Using the selective ALK-5 TGF-β1 receptor inhibitor ([…]) as a positive control, the inhibition assay has been used to initiate a screen of a collection of ˜100,000 small molecules that consists of bioactive small molecules and a diversity set that has been assembled based on 2D and 3D structural diversity and inherent “drug-likeness” properties. Preliminary screening led to the identification of multiple previously identified anti-fibrotic molecules.
A high content imaging assay, based on α-SMA staining and cell morphological changes associated with fibroblast to myofibroblast transdifferentiation, was established using primary human lung fibroblasts and primary rodent HSCs. Conditions, involving serum starvation and subsequent TGF-β treatment, were identified that facilitate robust in vitro transdifferentiation in a miniaturized (384 well plate) format that is amenable to high throughput small molecule screening. A selective ALK-5 TGF-β1 receptor inhibitor (SB-431542) was used as a positive control. […] This assay was used to evaluate compounds of Formula (I), (Ia), (II), (IIa), (III), (IIIa), (IV), (IVa), (IVb), (V), (Va), (VI), (VIa), (VIb), (VIc), (VII), (VIIa), (VIII), (VIIIa), (IX), (IXa), (X), or (Xa) generated from medicinal chemistry efforts.
The activity of Itraconazole and compounds of Formula (I), (Ia), (II), (IIa), (III), (IIIa), (IV), (IVa), (IVb), (V), (Va), (VI), (VIa), (VIb), (VIc), (VII), (VIIa), (VIII), (VIIIa), (IX), (IXa), (X), or (Xa) was confirmed by analyzing changes in gene expression of multiple genes associated with fibroblast to myofibroblast transdifferentiation using biochemical methods (i.e., Western blot and RT-PCR). These 4-day assays were used to evaluate sets of 6 compounds at a time in 4-point dose response fashion.
The EC50 for (imaging and western based) activity is graded as: +++=<500 nM; ++=500 nM to 5 μM; +=5 to 30 μM); −=>30 μM; NT=Not Tested.

Row | SMILES | EC50 [µM]
1 | CCC(C)n1ncn(-c2ccc(N3CCN(c4ccc(OC[C@@H]5CO[C@@](Cn6nccn6)(c6ccc(Cl)cc6Cl)O5)nc4)CC3)cc2)c1=O (stereo partly shown) [Compound 54] | 0.5 to 5
2 | CCC(C)n1ncn(-c2ccc(N3CCN(c4ccc(OC[C@@H]5CO[C@@](Cn6nccn6)(c6ccc(Cl)cc6Cl)O5)cc4CN)CC3)cc2)c1=O (stereo partly shown) [Compound 55] | < 0.5
3 | CCC(C)n1ncn(-c2ccc(N3CCN(c4ccc(OC[C@@H]5CO[C@@](Cn6nccn6)(c6ccc(Cl)cc6Cl)O5)cc4C#N)CC3)cc2)c1=O (stereo partly shown) [Compound 56] | 0.5 to 5
4 | CCC(C)n1ncn(-c2ccc(N3CCN(c4ccc(OC[C@@H]5CO[C@@](Cn6nccn6)(c6ccc(Cl)cc6Cl)O5)c(C#N)c4)CC3)cc2)c1=O (stereo partly shown) [Compound 57] | < 0.5
5 | CCC(C)n1ncn(-c2ccc(N3CCN(c4ccc(OC[C@@H]5CO[C@@](Cn6nccn6)(c6ccccc6)O5)cc4F)CC3)cc2)c1=O (stereo partly shown) [Compound 58] | < 0.5
6 | CCC(C)n1ncn(-c2ccc(N3CCN(c4ccc(OC[C@@H]5CO[C@@](Cn6nccn6)(c6ccccc6)O5)c(C(F)(F)F)c4)CC3)cc2)c1=O (stereo partly shown) [Compound 59] | 5 to 30
7 | CCC(C)n1ncn(-c2ccc(N3CCN(c4ccc(OC[C@@H]5CO[C@@](Cn6nccn6)(c6ccccc6)O5)cc4C(F)(F)F)CC3)cc2)c1=O (stereo partly shown) [Compound 60] | 5 to 30
8 | CCC(C)n1ncn(-c2ccc(N3CCN(c4cc(C)c(OC[C@@H]5CO[C@@](Cn6nccn6)(c6ccccc6)O5)c(C)c4)CC3)cc2)c1=O (stereo partly shown) [Compound 61] | 5 to 30
9 | CCC(C)n1ncn(-c2ccc(N3CCN(c4cc(F)c(OC[C@@H]5CO[C@@](Cn6nccn6)(c6ccccc6)O5)c(F)c4)CC3)cc2)c1=O (stereo partly shown) [Compound 62] | 5 to 30
10 | CCC(C)n1ncn(-c2ccc(N3CCN(c4ccc(OC[C@@H]5CO[C@@](Cn6nccn6)(c6ccccc6)O5)c(F)c4F)CC3)cc2)c1=O (stereo partly shown) [Compound 63] | 5 to 30
11 | CCC(C)n1ncn(-c2ccc(N3CCN(c4ccc(OC[C@@H]5CO[C@@](Cn6nccn6)(c6ccccc6)O5)c(S(C)(=O)=O)c4)CC3)cc2)c1=O (stereo partly shown) [Compound 64] | 0.5 to 5
12 | CCC(C)n1ncn(-c2ccc(N3CCN(c4ccc(OC[C@@H]5CO[C@@](Cn6nccn6)(c6ccccc6)O5)c(C#N)c4)CC3)cc2)c1=O (stereo partly shown) [Compound 65] | < 0.5
13 | CCC(C)n1ncn(-c2ccc(N3CCN(c4ccc(OC[C@@H]5CO[C@@](Cn6nccn6)(c6ccccc6)O5)cc4C#N)CC3)cc2)c1=O (stereo partly shown) [Compound 66] | < 0.5
14 | CCC(C)n1ncn(-c2ccc(N3CCN(c4ccc(OC[C@@H]5CO[C@@](Cn6nccn6)(c6ccccc6)O5)cc4CN)CC3)cc2)c1=O (stereo partly shown) [Compound 67] | 0.5 to 5
15 | CCC(C)n1ncn(-c2ccc(N3CCN(c4ccc(OC[C@@H]5CO[C@@](Cn6nccn6)(c6ccccc6)O5)c(CN)c4)CC3)cc2)c1=O (stereo partly shown) [Compound 68] | < 0.5
16 | CCC(C)n1ncn(-c2ccc(N3CCN(c4ccc(OC[C@@H]5CO[C@@](Cn6nccn6)(c6ccc(Cl)cc6Cl)O5)cc4)CC3)c(F)c2)c1=O (stereo partly shown) [Compound 69] | 0.5 to 5
17 | CCC(C)n1ncn(-c2ccc(N3CCN(c4ccc(OC[C@@H]5CO[C@@](Cn6nccn6)(c6ccc(Cl)cc6Cl)O5)cc4)CC3)cc2F)c1=O (stereo partly shown) [Compound 70] | 0.5 to 5
18 | CCC(C)n1ncn(-c2ccc(N3CCN(c4ccc(OC[C@@H]5CO[C@@](Cn6nccn6)(c6ccccc6)O5)cc4)CC3)c(C#N)c2)c1=O (stereo partly shown) [Compound 71] | 5 to 30
19 | CCC(C)n1ncn(-c2ccc(N3CCN(c4ccc(OC[C@@H]5CO[C@@](Cn6nccn6)(c6ccccc6)O5)cc4)C(C)C3)cc2)c1=O (stereo partly shown) [Compound 72] | 5 to 30
20 | CCC(C)n1ncn(-c2ccc(N3CCN(c4ccc(OC[C@@H]5CO[C@@](Cn6nccn6)(c6ccccc6)O5)cc4)CC3C)cc2)c1=O (stereo partly shown) [Compound 73] | 5 to 30
21 | CCC(C)n1ncn(-c2ccc(N3CCCN(c4ccc(OC[C@@H]5CO[C@@](Cn6nccn6)(c6ccc(Cl)cc6Cl)O5)cc4)CC3)cc2)c1=O (stereo partly shown) [Compound 74] | 0.5 to 5
22 | CCC(C)n1ncn(-c2ccc(N3CCN(c4ccc(OC[C@@H]5CO[C@@](Cn6nccn6)(c6ccc(Cl)cc6Cl)O5)cc4)CC3)cc2)c1=S (stereo partly shown) [Compound 75] | > 30
23 | CCC(C)n1ncn(-c2cccc(N3CCN(c4ccc(OC[C@@H]5CO[C@@](Cn6nccn6)(c6ccc(Cl)cc6Cl)O5)cc4)CC3)c2)c1=O (stereo partly shown) [Compound 77] | > 30

Row | SMILES | EC50 [µM]
24 | CCC(C)n1ncn(-c2ccc(N3CCN(c4cccc(OC[C@@H]5CO[C@@](Cn6nccn6)(c6ccc(Cl)cc6Cl)O5)c4)CC3)cc2)c1=O (stereo partly shown) [Compound 78] | 0.5 to 5
25 | CCC(C)n1ncn(-c2ccc(N3CCN(c4ccccc4OC[C@@H]4CO[C@@](Cn5nccn5)(c5ccc(Cl)cc5Cl)O4)CC3)cc2)c1=O (stereo partly shown) [Compound 79] | > 30
26 | CCC(C)n1ncn(-c2ccc(N3CCN(c4ccc(OC[C@@H]5CO[C@@](Cn6cccn6)(c6cc(Cl)cc(Cl)c6)O5)cc4)CC3)cc2)c1=O (stereo partly shown) [Compound 80] | 0.5 to 5
27 | CCC(C)n1ncn(-c2ccc(N3CCN(c4ccc(OC[C@@H]5CO[C@@](Cn6cccn6)(c6ccc(Cl)cc6)O5)cc4)CC3)cc2)c1=O (stereo partly shown) [Compound 81] | < 0.5
28 | CCC(C)n1ncn(-c2ccc(N3CCN(c4ccc(OC[C@@H]5CO[C@@](Cn6cccn6)(c6cccc(Cl)c6)O5)cc4)CC3)cc2)c1=O (stereo partly shown) [Compound 82] | < 0.5
29 | CCC(C)n1ncn(-c2ccc(N3CCN(c4ccc(OC[C@@H]5CO[C@@](Cn6cccn6)(c6ccccc6Cl)O5)cc4)CC3)cc2)c1=O (stereo partly shown) [Compound 83] | < 0.5
30 | CCC(C)n1ncn(-c2ccc(N3CCN(c4ccc(OC[C@@H]5CO[C@@](Cn6cccn6)(c6ccc(Cl)c(Cl)c6)O5)cc4)CC3)cc2)c1=O (stereo partly shown) [Compound 84] | 0.5 to 5
31 | CCC(C)n1ncn(-c2ccc(N3CCN(c4ccc(OC[C@@H]5CO[C@@](Cn6cccn6)(c6ccccc6OC)O5)cc4)CC3)cc2)c1=O (stereo partly shown) [Compound 85] | 0.5 to 5
32 | CCC(C)n1ncn(-c2ccc(N3CCN(c4ccc(OC[C@@H]5CO[C@@](Cn6cccn6)(c6cccc(OC)c6)O5)cc4)CC3)cc2)c1=O (stereo partly shown) [Compound 86] | < 0.5
33 | CCC(C)n1ncn(-c2ccc(N3CCN(c4ccc(OC[C@@H]5CO[C@@](Cn6cccn6)(c6ccc(OC)cc6)O5)cc4)CC3)cc2)c1=O (stereo partly shown) [Compound 87] | < 0.5
34 | CCC(C)n1ncn(-c2ccc(N3CCN(c4ccc(OC[C@@H]5CO[C@@](Cn6cccn6)(c6cccc(C#N)c6)O5)cc4)CC3)cc2)c1=O (stereo partly shown) [Compound 88] | 0.5 to 5
35 | CCC(C)n1ncn(-c2ccc(N3CCN(c4ccc(OC[C@@H]5CO[C@@](Cn6cccn6)(c6ccc(C#N)cc6)O5)cc4)CC3)cc2)c1=O (stereo partly shown) [Compound 89] | 0.5 to 5
36 | CCC(C)n1ncn(-c2ccc(N3CCN(c4ccc(OC[C@@H]5CO[C@@](Cn6cccn6)(c6ccccc6C#N)O5)cc4)CC3)cc2)c1=O (stereo partly shown) [Compound 90] | 0.5 to 5
37 | CCC(C)n1ncn(-c2ccc(N3CCN(c4ccc(OC[C@@H]5CO[C@@](Cn6cccn6)(c6ccccc6C(F)(F)F)O5)cc4)CC3)cc2)c1=O (stereo partly shown) [Compound 91] | < 0.5
38 | CCC(C)n1ncn(-c2ccc(N3CCN(c4ccc(OC[C@@H]5CO[C@@](Cn6cccn6)(c6cccc(C(F)(F)F)c6)O5)cc4)CC3)cc2)c1=O (stereo partly shown) [Compound 92] | < 0.5
39 | CCC(C)n1ncn(-c2ccc(N3CCN(c4ccc(OC[C@@H]5CO[C@@](Cn6cccn6)(c6ccc(C(F)(F)F)cc6)O5)cc4)CC3)cc2)c1=O (stereo partly shown) [Compound 93] | < 0.5
40 | CCC(C)n1ncn(-c2ccc(N3CCN(c4ccc(OC[C@@H]5CO[C@@](Cn6cccn6)(c6ccc(OC(F)(F)F)cc6)O5)cc4)CC3)cc2)c1=O (stereo partly shown) [Compound 94] | < 0.5
41 | CCC(C)n1ncn(-c2ccc(N3CCN(c4ccc(OC[C@@H]5CO[C@@](Cn6cccn6)(c6ccccc6C)O5)cc4)CC3)cc2)c1=O (stereo partly shown) [Compound 95] | < 0.5
42 | CCC(C)n1ncn(-c2ccc(N3CCN(c4ccc(OC[C@@H]5CO[C@@](Cn6cccn6)(c6cccc(C)c6)O5)cc4)CC3)cc2)c1=O (stereo partly shown) [Compound 96] | < 0.5
43 | CCC(C)n1ncn(-c2ccc(N3CCN(c4ccc(OC[C@@H]5CO[C@@](Cn6cccn6)(c6ccc(C)cc6)O5)cc4)CC3)cc2)c1=O (stereo partly shown) [Compound 97] | 5 to 30
44 | CCC(C)n1ncn(-c2ccc(N3CCN(c4ccc(OC[C@@H]5CO[C@@](Cn6cccn6)(c6ccc(S(C)(=O)=O)cc6)O5)cc4)CC3)cc2)c1=O (stereo partly shown) [Compound 98] | 0.5 to 5
45 | CCC(C)n1ncn(-c2ccc(N3CCN(c4ccc(OC[C@@H]5CO[C@@](Cn6cccn6)(c6ccc(S(N)(=O)=O)cc6)O5)cc4)CC3)cc2)c1=O (stereo partly shown) [Compound 99] | 5 to 30
46 | CCC(C)n1ncn(-c2ccc(N3CCN(c4ccc(OC[C@@H]5CO[C@@](Cn6cccn6)(c6ccc(C(N)=O)cc6)O5)cc4)CC3)cc2)c1=O (stereo partly shown) [Compound 100] | 0.5 to 5
